Where two headings read alike, the source gives them in different places.
Key:
[1] = tested on: EMT-6 mouse mammary tumor cells; assay: In vitro cytotoxicity screen (colony formation); assay type: cell-based; conditions: 1 hour drug exposure at 37° C., EMT-6 colony formation
Description: Cell Line and Culture. The cell line used in the screen was EMT-6 mouse mammary tumor cells in culture that were maintained in exponential growth in Waymouth's medium (I.S.I. Corp., Chicago, Ill.), supplemented with 15% newborn calf serum, penicillin (100 units/ml), and streptomycin (100 μg/ml) (Grand Island Biological Co., Grand Island, N.Y.). The doubling time of these cultures, growing at 37° C. in a 5% CO2 /95% air atmosphere, was 16-19 hours. In vitro plating efficiencies of control cultures were 65-80%.
Production of Hypoxia. To produce hypoxia, plastic flasks, containing exponentially growing monolayers of tumor cells in complete medium plus serum, were fitted with sterile rubber septums and exposed to a continuously flowing 95% N2 /5% CO2 humidified atmosphere for 4 hours at 37° C. as described by B. A. Teicher et al., Int. J. Radiat. Oncol. Biol. Phy., 11:937-940 (1985); and B. A. Teicher et al., Cancer Res., 41:73-81 (1981). Parallel flasks were maintained in 95% air/5% CO2. At the end of 4 hours, the drug specified in Table I below was added to the flasks by injection through the rubber septum without disturbing the hypoxia. […]
Drug Treatments. Exponentially growing cells were exposed to varying concentrations of the drugs specified in Table I below for 1 hour at 37° C. Non-drug-treated controls were handled identically. Drugs were prepared in sterile phosphate-buffered saline immediately before use and added to the cells in a small volume (50-100 μl). […] After treatment, the medium was removed, and the cultures were washed twice with phosphate buffered saline and suspended by trypsinization.
Cell Viability Measurements. Cell viability was measured by the ability of single cells to form colonies in vitro, as described by B. A. Teicher et al., Int. J. Radiat. Oncol. Biol. Phys., 11:937-940 (1985); and B. A. Teicher et al., Cancer Res., 41:73-81 (1981). Following treatment, suspensions of known cell numbers were plated in plastic Petri dishes and allowed to grow in a 37° C. incubator under standard culture conditions for 8-10 days. After this time interval, macroscopic colonies were stained with crystal violet in methanol containing 3.7% formaldehyde and were counted manually. Each experiment was repeated 3 times and each data point per experiment represents the results of 3 different dilutions of cells plated in triplicate.

L1210 leukemia = assay: In vivo antitumor test, L1210 leukemia implanted i.p. in DBA mice; conditions: for SURVIVAL: lifespan post tumor cell inoculation; for % ILS: vs untreated controls
Description: L1210 leukemia (10^6) cells were implanted intraperitoneally in DBA mice (Taconic Farms, Germantown, N.Y.) on day 0. Treatment with each drug was carried out daily for 5 days. The drugs were administered intraperitoneally at the doses shown on Table II below. Each treatment group had six animals and the experiment was carried out twice. The percent increase-in-lifespan (% ILS) is for the treated subjects compared with the untreated controls.
^a Drugs were administered i.p. daily on days 1-5.
^b Lifespan of the animals post tumor cell innoculation.

[2] = Mus musculus, EMT6, 1 h, Hypoxia, read-out: IC50
[3] = Mus musculus, EMT6, 1 h, Normal oxygenation, read-out: IC50
[4] = Mus musculus, EMT6, Normal oxygenation, read-out: IC90
[5] = 1.00 mg/kg i.p. daily on days 1-5
[6] = 2.50 mg/kg i.p. daily on days 1-5
[7] = 5.00 mg/kg i.p. daily on days 1-5
[8] = 10.00 mg/kg i.p. daily on days 1-5
[9] = Mus musculus, EMT6, 1 h, Hypoxia
[10] = Mus musculus, EMT6, 1 h, Normal oxygenation
[11] = 0.50 mg/kg i.p. daily on days 1-5
[12] = 1.25 mg/kg i.p. daily on days 1-5
[13] = 1.50 mg/kg i.p. daily on days 1-5
[14] = 2.00 mg/kg i.p. daily on days 1-5

O=C1C=C(N2CCC2)C(N2CCC2)=CC1=O [4,5-Azetidinyl-1,2-Benzoquinone, 4,5-azetidinyl-1,2-benzoquinone] showed an IC90 ([1]; Hypoxia, read-out: IC90) of over 500 µM, an IC50 [1, 2] of 400 µM and an IC50 [1, 3] of 500 µM. The IC90 [1, 4] was over 500 µM, the “SURVIVAL” value (L1210 leukemia; [5]) was 8.0 days and the “% ILS” value (L1210 leukemia; [5]) was 8%. For the same molecule, the “SURVIVAL” value (L1210 leukemia; [6]) was 7.8 days, the “% ILS” value (L1210 leukemia; [6]) was 5% and the “SURVIVAL” value (L1210 leukemia; [7]) was 7.8 days. For the same molecule, the “% ILS” value (L1210 leukemia; [7]) was 5%, the “SURVIVAL” value (L1210 leukemia; [8]) was 6.4 days and the “% ILS” value (L1210 leukemia; [8]) was “toxic”.
With O=C1C=C(N2CC2)C(N2CC2)=CC1=O [4,5-Aziridinyl-1,2-Benzoquinone, 4,5-aziridinyl-1,2-benzoquinone] the IC50 [1, 9] was 0.2 µM, the IC90 [1, 9] was 1 µM and the IC50 [1, 10] was 0.4 µM. The IC90 [1, 10] was 1.1 µM, the “SURVIVAL” value (L1210 leukemia; [11]) was 12.6 days and the “% ILS” value (L1210 leukemia; [11]) was 70%. The “SURVIVAL” value (L1210 leukemia; [5]) was 13.4 days, the “% ILS” value (L1210 leukemia; [5]) was 81% and the “SURVIVAL” value (L1210 leukemia; [12]) was 13.6 days. The “% ILS” value (L1210 leukemia; [12]) was 84%, the “SURVIVAL” value (L1210 leukemia; [13]) was 13.8 days and the “% ILS” value (L1210 leukemia; [13]) was 86%. For the same molecule, the “SURVIVAL” value (L1210 leukemia; [14]) was 11.8 days, the “% ILS” value (L1210 leukemia; [14]) was 59% and the “SURVIVAL” value (L1210 leukemia; [6]) was 6.0 days. The “% ILS” value (L1210 leukemia; [6]) was “toxic”.
In the case of COC1=CC(=O)C(=O)C=C1OC [4,5-Methoxy-1,2-Benzoquinone, 4,5-Dimethoxy-1,2-benzoquinone, reference compound], the IC90 ([1]; Hypoxia, read-out: IC90) is reported as over 500 µM, the IC50 [1, 2] is reported as over 500 µM and the IC50 [1, 3] is reported as 500 µM. For the same molecule, the IC90 [1, 4] was over 500 µM.
In the case of O=C1C=C(N2CCCC2)C(N2CCCC2)=CC1=O [4,5-Pyrrolidinyl-1,2-Benzoquinone, 4,5-pyrrolidinyl-1,2-benzoquinone], the IC90 ([1]; Hypoxia, read-out: IC90) is reported as over 500 µM, the IC50 [1, 2] is reported as over 500 µM and the IC50 [1, 3] is reported as over 500 µM. For the same molecule, the IC90 [1, 4] was over 500 µM, the “SURVIVAL” value (L1210 leukemia; [5]) was 8.0 days and the “% ILS” value (L1210 leukemia; [5]) was 8%. The “SURVIVAL” value (L1210 leukemia; [6]) was 8.0 days, the “% ILS” value (L1210 leukemia; [6]) was 8% and the “SURVIVAL” value (L1210 leukemia; [7]) was 7.6 days. The “% ILS” value (L1210 leukemia; [7]) was 3%, the “SURVIVAL” value (L1210 leukemia; [8]) was 6.3 days and the “% ILS” value (L1210 leukemia; [8]) was “toxic”.
Work on CCN(CC)C1=CC(=O)C(=O)C=C1N(CC)CC [4,5-bis-(Diethylamino)-1,2-Benzoquinone, 4,5-bis-(diethylamino)-1,2-benzoquinone] yielded an IC90 ([1]; Hypoxia, read-out: IC90) of over 500 µM, an IC50 [1, 2] of 400 µM and an IC50 [1, 3] of 500 µM. The IC90 [1, 4] was over 500 µM, the “SURVIVAL” value (L1210 leukemia; [5]) was 7.8 days and the “% ILS” value (L1210 leukemia; [5]) was 5%. For the same molecule, the “SURVIVAL” value (L1210 leukemia; [6]) was 8.4 days, the “% ILS” value (L1210 leukemia; [6]) was 14% and the “SURVIVAL” value (L1210 leukemia; [7]) was 8.6 days. For the same molecule, the “% ILS” value (L1210 leukemia; [7]) was 16%, the “SURVIVAL” value (L1210 leukemia; [8]) was 7.8 days and the “% ILS” value (L1210 leukemia; [8]) was 5%.
Molecule COC1=CC(=O)C(=O)C=C1NCCCl [4-chloroethylamino-5-methoxy-1,2-benzoquinone] has an IC50 [1, 9] of 110 µM, an IC90 [1, 9] of 190 µM and an IC50 [1, 10] of 125 µM. The IC90 [1, 10] was 455 µM.
CCOC(=O)NC1=C(N2CC2)C(=O)C(NC(=O)OCC)=C(N2CC2)C1=O [AZQ, 3,6-bis(ethylcarboxyamino)-2,5-diaziridinyl-1,4-benzoquinone, reference compound] was tested, and the IC50 [1, 2] was 7.5 µM, the IC90 ([1]; Mus musculus, EMT6, 1 h, Hypoxia, read-out: IC90) was 17.5 µM and the IC50 [1, 3] was 5 µM. The IC90 ([1]; Mus musculus, EMT6, 1 h, Normal oxygenation, read-out: IC90) was 15.5 µM.
